Measurements as given in patent US20060084675A1, “Combined treatment with artesunate and an epidermal growth factor receptor kinase inhibitor” (priority 2004, published 2006).
“And” between values parts separate entries of the source, which are not always exact repeats. Equal values may be shown once. Read-outs that look alike come from different tables or passages of the source.

Key:
[1] = intravenous application of 2 mg/kg; cited from earlier work
G-599GM cell line = assay: Growth inhibition assay (incl. isobolographic analysis); assay type: cell-based; details: Homo sapiens; for IC50: read-out: IC50, drug alone
Experimental: (§1) Nine established GBM cell lines derived from histopathologically confirmed neurosurgical specimens obtained in the Department for Neurosurgery, University of Gottingen, Germany, were maintained in RPMI 1640 medium (BioWhittaker, Walkersville, Md., U.S.A.) supplemented with 10% heat-inactivated fetal calf serum and incubated in a humidified 5% CO2 atmosphere at 37° C. Medium was exchanged twice weekly, and cells were passaged upon reaching subconfluence. At the beginning of the study, all cell lines were beyond their 20th passage. The in vitro response to cytostatic drugs was evaluated by means of a growth inhibition assay. Aliquots of 5×10^3 cells/ml were seeded in culture medium, and drugs were added at different concentrations. Cells were counted 10 days after seeding. These growth curves represent the net outcome of cell proliferation and cell death. Cell numbers were quantitated each in eight independent determinations. […] G. and Peckham, M. J. (1979) Int. J. Radiat. Oncol. Biol. Phys. 5:85-91; Berenbaum, M. C. (1981) Adv. Cancer Res. 35:269-335).

14 GBM cell lines = assay: Growth inhibition assay, panel; assay type: cell-based; details: Homo sapiens; ART alone; range over 14 cell lines
Source text: as §1, with “(1997) J. Biol. Chem. 272:2927-2935). The cell lines were provided by Dr. W. K. Cavenee (Ludwig Institute for Cancer Research, San Diego, Calif., U.S.A.). Cell culture conditions of these cell lines were as described ([…], et al. (1996) Cancer Res. 56:5079-5086). Nine” for “Nine”

U-87MG cells = assay: Growth inhibition assay; assay type: cell-based; details: Homo sapiens, 240 h, single drug, cells counted 10 days after seeding, read-out: IC50 calculated from the dose-response curves
Experimental: (§2) The establishment of the parental human GBM cell line U-87MG and its derivatives which overexpress exogenous wild-type epidermal growth factor receptor (U-87MG.WT-2N), tyrosine kinase-deficient EGFR (U-87MG.DK-2N), EGFR with a genomic deletion of exons 2 to 7 (U-87MG.ΔEGFR), or control expression vector (U-87MG.LUX), respectively, has been described elsewhere (Huang, H-J S et al. (1997) J. Biol. Chem. 272:2927-2935). The cell lines were provided by Dr. W. K. Cavenee (Ludwig Institute for Cancer Research, San Diego, Calif., U.S.A.). Cell culture conditions of these cell lines were as described (Nagane M, et al. (1996) Cancer Res. 56:5079-5086).
(§3) The in vitro response to cytostatic drugs was evaluated by means of a growth inhibition assay. Aliquots of 5×10^3 cells/ml were seeded in culture medium, and drugs were added at different concentrations. Cells were counted 10 days after seeding. These growth curves represent the net outcome of cell proliferation and cell death. Cell numbers were quantitated each in eight independent determinations.

U-87MG.WT-2N cells = assay: Growth inhibition assay; assay type: cell-based; details: Homo sapiens
Experimental: as §2, §3

G-1265GM = assay: Growth inhibition assay; assay type: cell-based; details: Homo sapiens
Experimental: Nine established GBM cell lines derived from histopathologically confirmed neurosurgical specimens obtained in the Department for Neurosurgery, University of Gottingen, Germany, were maintained in RPMI 1640 medium (BioWhittaker, Walkersville, Md., U.S.A.) supplemented with 10% heat-inactivated fetal calf serum and incubated in a humidified 5% CO2 atmosphere at 37° C. Medium was exchanged twice weekly, and cells were passaged upon reaching subconfluence. At the beginning of the study, all cell lines were beyond their 20th passage.
as §3

[2] = patients with advanced solid malignancies, phase I; cited from earlier work

SMILES	peak plasma concentration [1]	IC50 (G-599GM cell line; single drug)	IC50 (14 GBM cell lines)	IC50 (U-87MG cells)	inhibition at 1 µM (U-87MG.WT-2N cells)	IC50 (G-599GM cell line)	inhibition at 1 µM (G-599GM cell line; read-out: growth inhibition)	inhibition at 1 µM (G-1265GM)	average minimal steady state plasma concentration [2]
C[C@H]1[C@H](OC(=O)CCC(=O)O)O[C@@H]2O[C@@]3(C)CC[C@H]4[C@H](C)CC[C@@H]1[C@@]24OO3 [ART, artesunate]	6.88 ± 4.69 µM	4.2 µM	1.5 to 18.5 µM						
C#Cc1cccc(Nc2ncnc3cc(OCCOC)c(OCCOC)cc23)c1 [OSI-774, [6,7-bis(2-methoxyethoxy)-4-quinazolin-4-yl]-(3-ethynylphenyl)amine]				8.6 µM	33.8%	1.3 µM	23.4%	-1.79%	1.2 μg/ml and 3 μM
